According to ChEMBL document CHEMBL1126299, “Synthesis and structure-activity relationships of cephalosporins with C-3' catechol-containing residues” (J Med Chem, 1992):
Values after ≈ are worked out from the molar mass of the structure shown.

Tested on: Citrobacter freundii
Assay: The compound was tested for minimum inhibitory concentration in Citrobacter freundii, DR 382031 constitutive depressed type 1
Assay type: functional
Conditions: not given
Compound `CC(C)(O/N=C(\C(=O)N[C@@H]1C(=O)N2C(C(=O)O)=C(CCNC(=O)c3cc(O)c(O)c(Br)c3)CSC12)c1csc(N)n1)C(=O)O` (stereo partly specified) has an MIC of 1 mg/L (≈ 1.4 µM).
In the case of `CC(C)(O/N=C(\C(=O)N[C@@H]1C(=O)N2C(C(=O)O)=C(CNC(=O)c3ccc4cc(O)c(O)cc4c3)CSC12)c1csc(N)n1)C(=O)O` (stereo partly specified), the MIC is reported as 16 mg/L (≈ 23.9 µM).

Tested on: Citrobacter freundii
Assay: The compound was tested for minimum inhibitory concentration in Citrobacter freundii, I+382010 inducible type 1 lactamase producer
Assay type: functional
Conditions: not given
For `CC(C)(O/N=C(\C(=O)N[C@@H]1C(=O)N2C(C(=O)O)=C(CNC(=O)c3ccc4cc(O)c(O)cc4c3)CSC12)c1csc(N)n1)C(=O)O` (stereo partly specified), the MIC was 0.008 mg/L (≈ 0.0119 µM).

Tested on: Enterobacter cloacae
Assay: The compound was tested for minimum inhibitory concentration in Enterobacter cloacae,I+401029 inducible type 1 lactamase producer
Assay type: functional
Conditions: not given
`CC(C)(O/N=C(\C(=O)N[C@@H]1C(=O)N2C(C(=O)O)=C(CNC(=O)c3ccc4cc(O)c(O)cc4c3)CSC12)c1csc(N)n1)C(=O)O` (stereo partly specified) showed an MIC of 0.125 mg/L (≈ 0.186 µM).

Tested on: Enterobacter cloacae
Assay: The compound was tested for minimum inhibitory concentration in Enterobacter cloacae,P99- inducible type 1 lactamase producer
Assay type: functional
Conditions: not given
Compound `CC(C)(O/N=C(\C(=O)N[C@@H]1C(=O)N2C(C(=O)O)=C(CNC(=O)c3ccc4cc(O)c(O)cc4c3)CSC12)c1csc(N)n1)C(=O)O` (stereo partly specified) has an MIC of 0.125 mg/L (≈ 0.186 µM).

Species on record: Homo sapiens
Assay: Compound is evaluated for serum protein binding in human blood (protein binding in marmoset blood)
Assay type: functional
Conditions: not given
For `CC(C)(O/N=C(\C(=O)N[C@@H]1C(=O)N2C(C(=O)O)=C(CCNC(=O)c3cc(O)c(O)c(Br)c3)CSC12)c1csc(N)n1)C(=O)O` (stereo partly specified), the Activity was 99%.

Tested on: Staphylococcus aureus
Assay: The compound was tested for minimum inhibitory concentration in Staphylococcus aureus Oxford penicillin sensitive Staphylococcus aureus
Assay type: functional
Conditions: not given
In the case of `CC(C)(O/N=C(\C(=O)N[C@@H]1C(=O)N2C(C(=O)O)=C(CCNC(=O)c3cc(O)c(O)c(Br)c3)CSC12)c1csc(N)n1)C(=O)O` (stereo partly specified), the MIC is reported as 16 mg/L (≈ 22.4 µM).

Tested on: Pseudomonas aeruginosa
Assay: The compound was tested for minimum inhibitory concentration in Pseudomonas aeruginosa,18S inducible type 1 lactamase producer
Assay type: functional
Conditions: not given
`CC(C)(O/N=C(\C(=O)N[C@@H]1C(=O)N2C(C(=O)O)=C(CNC(=O)c3ccc4cc(O)c(O)cc4c3)CSC12)c1csc(N)n1)C(=O)O` (stereo partly specified) showed an MIC of 0.008 mg/L (≈ 0.0119 µM).

Tested on: Providencia stuartii
Assay: The compound was tested for minimum inhibitory concentration in Pseudomonas stuartii,I+442019 inducible type 1 lactamase producer
Assay type: functional
Conditions: not given
For `CC(C)(O/N=C(\C(=O)N[C@@H]1C(=O)N2C(C(=O)O)=C(CNC(=O)c3ccc4cc(O)c(O)cc4c3)CSC12)c1csc(N)n1)C(=O)O` (stereo partly specified), the MIC was 0.25 mg/L (≈ 0.373 µM).

Tested on: Staphylococcus aureus
Assay: The compound was tested for minimum inhibitory concentration in Staphylococcus aureus,147N penicillin sensitive Staphylococcus aureus
Assay type: functional
Conditions: not given
`CC(C)(O/N=C(\C(=O)N[C@@H]1C(=O)N2C(C(=O)O)=C(CCNC(=O)c3cc(O)c(O)c(Br)c3)CSC12)c1csc(N)n1)C(=O)O` (stereo partly specified) gave an MIC of 16 mg/L (≈ 22.4 µM).

Tested on: not listed separately
Assay: The compound was tested for % urinary recovery in marmosets at the dose of 3 mg/kg
Assay type: ADME, organism-based
Design: dose 3 mg/kg
Conditions: callithrix, urine, read-out: Recovery
`CC(C)(O/N=C(\C(=O)N[C@@H]1C(=O)N2C(C(=O)O)=C(CCNC(=O)c3cc(O)c(O)c(Br)c3)CSC12)c1csc(N)n1)C(=O)O` (stereo partly specified) showed a dose excreted of 17.5%.

Tested on: Citrobacter freundii
Assay: microbe, parasite or virus in culture
Conditions: not given
With `CC(C)(O/N=C(\C(=O)N[C@@H]1C(=O)N2C(C(=O)O)=C(CCNC(=O)c3cc(O)c(O)c(Br)c3)CSC12)c1csc(N)n1)C(=O)O` (stereo partly specified) the MIC was 0.008 mg/L (≈ 0.0112 µM).

Tested on: Enterobacter cloacae
Assay: microbe, parasite or virus in culture
Conditions: not given
`CC(C)(O/N=C(\C(=O)N[C@@H]1C(=O)N2C(C(=O)O)=C(CCNC(=O)c3cc(O)c(O)c(Br)c3)CSC12)c1csc(N)n1)C(=O)O` (stereo partly specified) gave an MIC of 8 mg/L (≈ 11.2 µM).
With `CC(C)(O/N=C(\C(=O)N[C@@H]1C(=O)N2C(C(=O)O)=C(CNC(=O)c3ccc4cc(O)c(O)cc4c3)CSC12)c1csc(N)n1)C(=O)O` (stereo partly specified) the MIC was over 128 mg/L.

Tested on: Escherichia coli
Assay: microbe, parasite or virus in culture
Conditions: not given
For `CC(C)(O/N=C(\C(=O)N[C@@H]1C(=O)N2C(C(=O)O)=C(CCNC(=O)c3cc(O)c(O)c(Br)c3)CSC12)c1csc(N)n1)C(=O)O` (stereo partly specified), the MIC was 0.008 mg/L (≈ 0.0112 µM).

Tested on: Enterobacter cloacae
Assay: microbe, parasite or virus in culture
Conditions: not given
Remark: another data set of the same source
With `CC(C)(O/N=C(\C(=O)N[C@@H]1C(=O)N2C(C(=O)O)=C(CCNC(=O)c3cc(O)c(O)c(Br)c3)CSC12)c1csc(N)n1)C(=O)O` (stereo partly specified) the MIC was 2 mg/L (≈ 2.8 µM).
In the case of `CC(C)(O/N=C(\C(=O)N[C@@H]1C(=O)N2C(C(=O)O)=C(CNC(=O)c3ccc4cc(O)c(O)cc4c3)CSC12)c1csc(N)n1)C(=O)O` (stereo partly specified), the MIC is reported as 16 mg/L (≈ 23.9 µM).

Tested on: Enterobacter cloacae
Assay: microbe, parasite or virus in culture
Conditions: not given
Remark: another data set of the same source
With `CC(C)(O/N=C(\C(=O)N[C@@H]1C(=O)N2C(C(=O)O)=C(CCNC(=O)c3cc(O)c(O)c(Br)c3)CSC12)c1csc(N)n1)C(=O)O` (stereo partly specified) the MIC was 0.015 mg/L (≈ 0.021 µM).

Tested on: Enterobacter cloacae
Assay: microbe, parasite or virus in culture
Conditions: not given
Remark: another data set of the same source
`CC(C)(O/N=C(\C(=O)N[C@@H]1C(=O)N2C(C(=O)O)=C(CCNC(=O)c3cc(O)c(O)c(Br)c3)CSC12)c1csc(N)n1)C(=O)O` (stereo partly specified) gave an MIC of 0.03 mg/L (≈ 0.042 µM).

Tested on: Escherichia coli
Assay: microbe, parasite or virus in culture
Conditions: not given
Remark: another data set of the same source
With `CC(C)(O/N=C(\C(=O)N[C@@H]1C(=O)N2C(C(=O)O)=C(CCNC(=O)c3cc(O)c(O)c(Br)c3)CSC12)c1csc(N)n1)C(=O)O` (stereo partly specified) the MIC was 0.008 mg/L (≈ 0.0112 µM).

Tested on: Pseudomonas aeruginosa
Assay: microbe, parasite or virus in culture
Conditions: not given
For `CC(C)(O/N=C(\C(=O)N[C@@H]1C(=O)N2C(C(=O)O)=C(CCNC(=O)c3cc(O)c(O)c(Br)c3)CSC12)c1csc(N)n1)C(=O)O` (stereo partly specified), the MIC was 0.008 mg/L (≈ 0.0112 µM).

Tested on: Pseudomonas aeruginosa
Assay: microbe, parasite or virus in culture
Conditions: not given
Remark: another data set of the same source
Compound `CC(C)(O/N=C(\C(=O)N[C@@H]1C(=O)N2C(C(=O)O)=C(CCNC(=O)c3cc(O)c(O)c(Br)c3)CSC12)c1csc(N)n1)C(=O)O` (stereo partly specified) has an MIC of 0.008 mg/L (≈ 0.0112 µM).

Tested on: Pseudomonas aeruginosa
Assay: microbe, parasite or virus in culture
Conditions: not given
Remark: another data set of the same source
`CC(C)(O/N=C(\C(=O)N[C@@H]1C(=O)N2C(C(=O)O)=C(CCNC(=O)c3cc(O)c(O)c(Br)c3)CSC12)c1csc(N)n1)C(=O)O` (stereo partly specified) showed an MIC of 0.015 mg/L (≈ 0.021 µM).
For `CC(C)(O/N=C(\C(=O)N[C@@H]1C(=O)N2C(C(=O)O)=C(CNC(=O)c3ccc4cc(O)c(O)cc4c3)CSC12)c1csc(N)n1)C(=O)O` (stereo partly specified), the MIC was 0.125 mg/L (≈ 0.186 µM).

Tested on: Pseudomonas aeruginosa
Assay: microbe, parasite or virus in culture
Conditions: not given
Remark: another data set of the same source
In the case of `CC(C)(O/N=C(\C(=O)N[C@@H]1C(=O)N2C(C(=O)O)=C(CCNC(=O)c3cc(O)c(O)c(Br)c3)CSC12)c1csc(N)n1)C(=O)O` (stereo partly specified), the MIC is reported as 0.008 mg/L (≈ 0.0112 µM).
Work on `CC(C)(O/N=C(\C(=O)N[C@@H]1C(=O)N2C(C(=O)O)=C(CNC(=O)c3ccc4cc(O)c(O)cc4c3)CSC12)c1csc(N)n1)C(=O)O` (stereo partly specified) yielded an MIC of 0.03 mg/L (≈ 0.0447 µM).

Tested on: Providencia stuartii
Assay: microbe, parasite or virus in culture
Conditions: not given
`CC(C)(O/N=C(\C(=O)N[C@@H]1C(=O)N2C(C(=O)O)=C(CCNC(=O)c3cc(O)c(O)c(Br)c3)CSC12)c1csc(N)n1)C(=O)O` (stereo partly specified) showed an MIC of 4 mg/L (≈ 5.61 µM).
Compound `CC(C)(O/N=C(\C(=O)N[C@@H]1C(=O)N2C(C(=O)O)=C(CNC(=O)c3ccc4cc(O)c(O)cc4c3)CSC12)c1csc(N)n1)C(=O)O` (stereo partly specified) has an MIC of 8 mg/L (≈ 11.9 µM).

Tested on: Providencia stuartii
Assay: microbe, parasite or virus in culture
Conditions: not given
Remark: another data set of the same source
In the case of `CC(C)(O/N=C(\C(=O)N[C@@H]1C(=O)N2C(C(=O)O)=C(CCNC(=O)c3cc(O)c(O)c(Br)c3)CSC12)c1csc(N)n1)C(=O)O` (stereo partly specified), the MIC is reported as 0.25 mg/L (≈ 0.35 µM).

Tested on: Pseudomonas aeruginosa
Assay: microbe, parasite or virus in culture
Conditions: not given
Remark: another data set of the same source
`CC(C)(O/N=C(\C(=O)N[C@@H]1C(=O)N2C(C(=O)O)=C(CCNC(=O)c3cc(O)c(O)c(Br)c3)CSC12)c1csc(N)n1)C(=O)O` (stereo partly specified) showed an MIC of 0.008 mg/L (≈ 0.0112 µM).
Compound `CC(C)(O/N=C(\C(=O)N[C@@H]1C(=O)N2C(C(=O)O)=C(CNC(=O)c3ccc4cc(O)c(O)cc4c3)CSC12)c1csc(N)n1)C(=O)O` (stereo partly specified) has an MIC of 0.008 mg/L (≈ 0.0119 µM).
